Test results reported in patent EP0168881B1, “Oxa-fenchyl esters and amides of alpha-l-aspartyl-d-phenylglycine” (THE PROCTER & GAMBLE COMPANY, priority 1984, dated 1986).
Read-outs that look alike come from different tables or passages of the source. Non-standard residues stand in square brackets, D forms with d. Residues, ends and D or L forms follow the SMILES beside them. Phg = N[C@H](C(=O)O)c1ccccc1

Tests used:
[1] = cited from earlier work; for sweetness intensity: background art values; for taste: taste in words, background art
[2] = Sweetness intensity relative to sucrose, taste panel; assay type: in vivo, Male subjects; settings: based on informal panel testing
Text: The sweetness intensity of the esters and amides of the present invention relative to sucrose can be determined according to the following procedure:
Male subjects are chosen at random from a group of about 20 persons who have previously been selected on the basis of proven tasting acuity, i.e., persons who could.easily recognize the four basic tastes (sweet, sour, bitter and salty) and who are adept at quantifying their own physiological response numerically. The subjects are asked to taste and expectorate about 10 ml of a test sample (temperature of about 22°C) having dissolved therein the ester of amide. […] Sweetness intensity of the test sample is recorded by the subject making a mark on the linear scale at a point they consider equal in sweetness among the standard samples; interpolation between standards is encouraged. After completion of the panel, a five point numeric scale is superimposed on the linear scales to obtain numerical data; data is averaged and recorded to.the nearest 0.25 unit..Equivalent sucrose sweetness is determined by referring to graphs of (w/v) sucrose concentration in the standard samples versus a linear numeric scale.
Sweetness intensity is calculated by dividing the concentration (w/v) of perceived sweetness by the concentration (w/v) of the ester or amide required to produce that sweetness. […]

[3] = carbonated beverages; background statement; cited from earlier work

Row | SMILES | sweetness intensity [1] | other results
1 | C[C@@H](NC(=O)[C@@H](N)CC(=O)O)C(=O)NC1C(C)(C)S(=O)(=O)C1(C)C | 1000 times that of sucrose | –
2 | CC12CCC(O1)C(C)(C)C2OC(=O)C(NC(=O)C(N)CC(=O)O)c1ccccc1 (single isomer, unassigned) [Example 2, alpha-L-Aspartyl-D-phenylglycine-alpha-7-oxa-fenchyl ester] | – | sweetness intensity [2]: approximately 1000 X
3 | C[C@@H](NC(=O)[C@@H](N)CC(=O)O)C(=O)NC1C(C)(C)SC1(C)C [2,2,4,4-tetramethylthietan-3-yl] | 2000 times that of sucrose | –
4 | CC1CCC(C)C1NC(=O)[C@@H](C)NC(=O)[C@@H](N)CC(=O)O (stereo partly drawn) [2,5-dimethylcyclopentyl] | 520 times that of sucrose | –
5 | CC1CCCC(C)C1NC(=O)[C@@H](C)NC(=O)[C@@H](N)CC(=O)O (stereo partly drawn) [2,6-dimethylcyclohexyl] | 600 times that of sucrose | –
6 | O=C1NS(=O)(=O)c2ccccc21 [Saccharin] | about 300 times that of sucrose | taste [1]: undesirable lingering bitter aftertaste
7 | COC(=O)[C@H](Cc1ccccc1)NC(=O)[C@@H](N)CC(=O)O [aspartame, a/pha-L-aspartyl-L-phenylalanine lower alkyl esters, in particular the methyl ester known as aspartame] (H-Asp-Phe-OMe) | 150-200 times that of sucrose | hydrolytic stability [3]: hydrolytically unstable in most carbonated beverages
8 | C[C@@H](NC(=O)[C@@H](N)CC(=O)O)C(=O)NC(C1CC1)C1CC1 [dicyclopropylcarbinyl] | 1200 times that of sucrose | –
9 | C[C@@H](NC(=O)[C@@H](N)CC(=O)O)C(=O)NC1C2(C)CCC(C2)C1(C)C (stereo partly drawn) [fenchyl] | 320 times that of sucrose | –
10 | COC(=O)[C@@H](Cc1ccccc1)NC(=O)[C@@H](N)CC(=O)O [methyl ester of L-aspartyl-D-phenylalanine] (H-Asp-[dF]-OMe) | – | taste [1]: bitter
11 | COC(=O)[C@@H](NC(=O)[C@@H](N)CC(=O)O)c1ccccc1 [methyl ester of L-aspartyl-L-phenylglycine] (H-Asp-[Phg]-OMe) | 100-1000 times that of sucrose | taste [1]: quite sweet
12 | COC(=O)C(NC(=O)[C@@H](N)CC(=O)O)C(=O)OC1C2(C)CCC(C2)C1(C)C (stereo partly drawn) [methyl] | – | sweetness intensity ([1]; listed as R^1a is methyl ester group, R^2a is fenchyl group): 22,200-33,200 times that of sucrose
